Converted amounts (≈) assume the structure as drawn. A value given as a limit tells only on which side of the number the result lay.

The conditions of the data set: buffer; pH 7.4; 200.0 µM.
`Oc1c(Cl)cc(CN2CCOCC2)c2cccnc12` displayed a kinetic solubility of 33.6 µg/mL (≈ 121 µM).

`CCc1ccccc1Nc1nc2ccccc2[nH]1` came in with a solubility (kinetic) of 33.2 µg/mL (≈ 140 µM).

Take `COCC(C)n1c(SCC(=O)NC(=O)NCc2ccccc2)nc2ccccc2c1=O` (stereo not given): the kinetic solubility turned out to be 2.7 µg/mL (≈ 6.13 µM).

As to `COCCn1c(SCc2ccccc2)nc2c1c(=O)[nH]c(=O)n2C`, the solubility (kinetic) is > 52 µg/mL.

As to `O=C1N/C(=N\c2ccccn2)SC1Cc1ccc(Cl)cc1` (stereo not given), the solubility (kinetic) was < 0.2 µg/mL.

Compound `Cc1ccc(NC(=O)c2cc(-c3ccc(F)cc3)on2)cc1C` returned a solubility (kinetic) of 0.4 µg/mL (≈ 1.29 µM).

Consider `CCOC(=O)c1c(C)[nH]c(C)c1C(=O)COC(=O)C1CC(=O)N(CCc2ccccc2)C1` (stereo not given), for which the kinetic solubility is > 66.1 µg/mL.

Compound `O=C(NC(=S)Nc1ccc(O)cc1)c1ccccc1Cl` displayed a solubility (kinetic) of 20.5 µg/mL (≈ 66.8 µM).

Consider `CC(C)=CCN1CCN(Cc2cc3ccccc3[nH]2)CC1CCO` (stereo not given), for which the kinetic solubility was found to be 45.8 µg/mL (≈ 140 µM).

Compound `COC(=O)/C=C1\N/C(=N\c2nc(C)cc(C)n2)N(c2ccc(Cl)cc2)C1=O` registered a solubility (kinetic) of 57.6 µg/mL (≈ 149 µM).

`O=C(COC(=O)c1cc(Cl)ccc1O)Nc1ccccc1C(=O)NC1CC1`: the kinetic solubility came to 2 µg/mL (≈ 5.14 µM).

Consider `COCCCNC(=O)c1cc(C(=O)Cc2ccccc2)c[nH]1`, for which the kinetic solubility is > 45.1 µg/mL.

`CC1CC(C)(C)CC2(C1)NC(=O)N(CC(=O)N1CCN(S(=O)(=O)c3cccc(F)c3)CC1)C2=O` (stereo not given) came in with a solubility (kinetic) of 4.9 µg/mL (≈ 9.91 µM).

Consider `CSc1ccc(CN2CCC(Cc3ccccc3)CC2)cc1`, for which the kinetic solubility worked out at 17.7 µg/mL (≈ 56.8 µM).

For the compound `Cc1ccc2nc(NS(=O)(=O)c3cn(C)nc3C)sc2c1`, the kinetic solubility is > 48.4 µg/mL.

Turning to `CN(Cc1ccccc1Cl)C(=O)c1cnccc1C(F)(F)F`, the solubility (kinetic) is > 49.3 µg/mL.

`Cc1ccsc1C(=O)NC(C)c1ccccc1` (stereo not given): the solubility (kinetic) is > 36.8 µg/mL.

As for `Cc1ccc(C(=O)NC2CCN(C(=O)Nc3ccc(F)cc3)CC2)cc1`, the solubility (kinetic) was 0.6 µg/mL (≈ 1.69 µM).

Take `CCOc1cc(C(=O)OCc2cc(=O)n3c(C)csc3n2)ccc1OC`: the solubility (kinetic) was 3.1 µg/mL (≈ 8.28 µM).

In turn, `Cc1ccc(N2C(=O)SC(Cc3ccccc3)C2=O)cc1` (stereo not given) showed a kinetic solubility of 0.8 µg/mL (≈ 2.69 µM).

`Cn1ccnc1C1CCCCN1Cc1nc(Cc2ccccc2F)no1` (stereo not given): the kinetic solubility was found to be 49.9 µg/mL (≈ 140 µM).

The compound `Cc1ccccc1NC(=O)c1cccc(NC(=O)c2ccccc2C(=O)O)c1` returned a kinetic solubility of 55.8 µg/mL (≈ 149 µM).

In the case of `CC(C(=O)N1CCCC1)N(c1ccccc1)S(C)(=O)=O` (stereo not given), the solubility (kinetic) was > 44.5 µg/mL.

`CC(=O)N1CCN(c2ccc(NC(=O)c3cccc(C)c3)cc2)CC1` yielded a solubility (kinetic) of 7.7 µg/mL (≈ 22.8 µM).

`COc1ccc(CN(C)C(=O)c2ccncc2)c(OC)c1`: the kinetic solubility was > 42.9 µg/mL.

For `Cc1cccc(-c2onc3ccc(C(=O)/C=C/N(C)C)cc23)c1`, the solubility (kinetic) was 3.3 µg/mL (≈ 10.8 µM).

`COc1ccc(C2(C)NC(=O)NC2=O)cc1OC` (stereo not given): the kinetic solubility is > 37.5 µg/mL.

`CCOC(=O)c1sc2ncc([N+](=O)[O-])cc2c1N` gave a kinetic solubility of 3.8 µg/mL (≈ 14.2 µM).

The compound `O=C(COC(=O)CC1CC2CCC1C2)Nc1ccccc1Cl` (stereo not given) registered a solubility (kinetic) of 12.9 µg/mL (≈ 40.1 µM).

In the case of `COCCSc1ccccc1C(=O)Nc1ccccc1C(C)C`, the kinetic solubility turned out to be 48.9 µg/mL (≈ 148 µM).

Take `O=C(Nc1ccc2c(c1)OCO2)C1CC1(Cl)Cl` (stereo not given): the solubility (kinetic) is > 41.1 µg/mL.

The compound `Cc1cc(N/C=C(\C#N)S(=O)(=O)c2ccccc2Cl)nc(C)n1` came in with a kinetic solubility of 39.5 µg/mL (≈ 113 µM).

In the case of `C[n+]1cccc(/C=N/Nc2nc(Cl)c(C#N)c(Cl)c2Cl)c1.[Cl-]`, the kinetic solubility is > 56.6 µg/mL.

For the compound `Cc1ccc(NS(=O)(=O)c2ccccc2[N+](=O)[O-])cc1S(=O)(=O)N1CCCCC1`, the solubility (kinetic) was > 65.9 µg/mL.

In turn, `N#CCc1nc(C(c2ccccc2)c2ccccc2)no1` gave a solubility (kinetic) of 33.5 µg/mL (≈ 122 µM).

`O=C(O)CCN1CCN(S(=O)(=O)c2ccc3ccccc3c2)CC1`: the kinetic solubility stood at 44.5 µg/mL (≈ 128 µM).

In turn, `Cc1noc(C)c1C(=O)OCC(=O)Nc1c(F)cccc1F` registered a kinetic solubility of 24 µg/mL (≈ 77.4 µM).

In the case of `O=C(Cc1ccc([N+](=O)[O-])cc1)NCc1ccccn1`, the kinetic solubility is > 40.7 µg/mL.

As for `Cc1nc2ccc(NC(=O)Cc3ccccc3F)cc2s1`, the kinetic solubility was 8 µg/mL (≈ 26.6 µM).

Regarding `Cc1ccc(S(=O)(=O)Nc2c(C)nn(C)c2C)cc1C`, the kinetic solubility is > 44 µg/mL.

`Cc1nc(CN(C)Cc2nc(Cc3ccccc3Cl)no2)cs1` registered a kinetic solubility of 44.3 µg/mL (≈ 127 µM).

`COc1ccccc1N(CC(=O)Nc1ccccc1C(F)(F)F)S(=O)(=O)c1cccs1` returned a solubility (kinetic) of 9 µg/mL (≈ 19.1 µM).

With `Cc1ccc(S(=O)(=O)Nc2c(C)cc(C)nc2Cl)cc1`, the solubility (kinetic) was > 46.6 µg/mL.

As to `O=C(CCc1ccccc1)NC(=S)Nc1cccc(C(=O)O)c1`, the kinetic solubility was > 49.3 µg/mL.

Take `CCCCCc1ccc(CC(=O)N2CCOCC2)cc1`: the solubility (kinetic) was 38.6 µg/mL (≈ 140 µM).

As for `O=C(/C=C/c1ccc(Cl)cc1)NC1CCS(=O)(=O)C1` (stereo not given), the kinetic solubility was > 45 µg/mL.

`CCC(CC)C(=O)N1CC(=O)Nc2ccc(C)cc2C1c1ccccc1` (stereo not given) came in with a kinetic solubility of 2.4 µg/mL (≈ 6.85 µM).

Compound `COc1ccc2nc(NC(=O)c3ccco3)sc2c1` registered a kinetic solubility of 7.4 µg/mL (≈ 27 µM).

For `CN(CC(=O)Nc1ccc(F)c(F)c1F)C(=O)c1ccc(N2CCCC2=O)cc1`, the kinetic solubility came out at 53.4 µg/mL (≈ 132 µM).

Consider `O=C(NC1CCCC1)C1CCCN(S(=O)(=O)c2ccc(F)cc2)C1` (stereo not given), for which the solubility (kinetic) came out at 3.4 µg/mL (≈ 9.59 µM).

One may read the solubility (kinetic) as the concentration staying in solution when a stock, usually in DMSO, is diluted into the medium.

Source of the values: PubChem BioAssay AID1996.
